From ChEMBL document CHEMBL4411303, “Synthesis of tetrazole derivatives bearing pyrrolidine scaffold and evaluation of their antifungal activity against Candida albicans” (Eur J Med Chem, 2019)
Values after ≈ are worked out from the molar mass of the structure shown. Active and inactive are the calls of the source. The rule behind the calls is not given here.

What was measured:
Candida albicans [1] = assay: Induction of reactive oxygen species generation in Candida albicans ATCC 90028 assessed as ROS level at 46.05 uM after 18 hrs by DCFDA probe based flow cytometry (reference value: 0.3%); format: functional
Candida albicans [2] = assay: Induction of apoptosis in Candida albicans ATCC 90028 assessed as necrotic cells at 46.05 uM by Annexin V-FITC/propidium iodide staining based flow cytometry relative to control; format: functional
Candida albicans [3] = assay: Antifungal activity against Candida albicans ATCC 90028 assessed as planktonic growth inhibition at 0.18 uM after 48 hrs by M27-A3 protocol based method relative to control; format: functional; settings: ATCC 90028, 48 h, read-out: GI
Candida albicans [4] = assay: Antifungal activity against Candida albicans ATCC 90028 assessed as planktonic growth inhibition at 0.72 uM after 48 hrs by M27-A3 protocol based method relative to control; format: functional; settings: ATCC 90028, 48 h, read-out: GI
[5] = Toxicity in Galleria mellonella larvae assessed as cocoon formation at 46.05 uM measured after 48 hrs (reference value: 100 +/- 0%)
Candida albicans [6] = assay: Antifungal activity against Candida albicans ATCC 90028 infected in Galleria mellonella larvae assessed as induction of pathogen entrapping by haemocytes at 10 uL measured at 24 hrs interval for 144 hrs by HE staining based microscopic analysis; format: functional, organism-based
Candida albicans [7] = assay: Antifungal activity against Candida albicans ATCC 90028 assessed as reduction in cell growth after 48 to 72 hrs by M27-A3 protocol based method; format: functional
[8] = Toxicity in Galleria mellonella larvae assessed as survival rate at 46.05 uM measured after 120 hrs (reference value: 100%)
[9] = Toxicity in Galleria mellonella larvae assessed as cocoon formation at 46.05 uM measured after 48 hrs (reference value: 85 +/- 5%)
Candida albicans [10] = assay: Antifungal activity against Candida albicans ATCC 90028 assessed as planktonic growth inhibition at 46.05 uM after 48 hrs by M27-A3 protocol based method relative to control; format: functional; settings: ATCC 90028, 48 h, read-out: GI
Candida albicans [11] = assay: Induction of apoptosis in Candida albicans ATCC 90028 assessed as necrotic cells by Annexin V-FITC/propidium iodide staining based flow cytometry; format: functional, organism-based
[12] = Toxicity in Galleria mellonella larvae assessed as survival rate at 46.05 uM measured after 48 hrs (reference value: 100%)
Candida albicans [13] = assay: Inhibition of Candida albicans ATCC 90028 cell adhesion to human TR146 cells at reduction in cell adherence at 46.05 uM relative to control; format: functional; settings: ATCC 90028, TR146
Candida albicans [14] = assay: Antifungal activity against Candida albicans ATCC 90028 infected in Galleria mellonella larvae assessed as inhibition of fungus filamentation at 10 uL measured at 24 hrs interval for 144 hrs by HE staining based microscopic analysis; format: functional, organism-based
[15] = Toxicity in Galleria mellonella larvae assessed as movement melanization at 46.05 uM measured after 128 hrs (reference value: 0%)
Candida albicans [16] = assay: Antifungal activity against Candida albicans ATCC 90028 assessed as planktonic growth inhibition at 0.36 uM after 48 hrs by M27-A3 protocol based method relative to control; format: functional; settings: ATCC 90028, 48 h, read-out: GI
Candida albicans [17] = assay: Antifungal activity against Candida albicans ATCC 90028 assessed as planktonic growth inhibition at 23.02 uM after 48 hrs by M27-A3 protocol based method relative to control; format: functional; settings: ATCC 90028, 48 h, read-out: GI
Candida albicans [18] = assay: Induction of Candida albicans ATCC 90028 internalization in mouse RAW264.7 cells assessed as reduction in fungus-induced cell damage by measuring live and early apoptotic cells at 46.05 uM after 2 hrs acridine orange/ethidium bromide staining based confocal scanning microscopic analysis; format: functional, organism-based
Candida albicans [19] = assay: Cell cycle arrest in Candida albicans ATCC 90028 assessed as accumulation at G0/G1-phase by propidium iodide staining based flow cytometry; format: functional, organism-based
[20] = Toxicity in Galleria mellonella larvae assessed as movement melanization at 46.05 uM measured after 18 hrs (reference value: 0%)
[21] = Selectivity index, ratio of CC50 for African green monkey Vero cells to IC50 for Candida albicans ATCC 90028; format: toxicity; settings: read-out: Ratio CC50/IC50
Candida albicans [22] = assay: Antibiofilm activity against Candida albicans ATCC 90028 assessed as inhibition of biofilm formation […] after 24 hrs by XTT assay relative to control; format: functional, organism-based; settings: ATCC 90028, 24 h
Candida albicans [23] = assay: Selectivity index, ratio of CC50 for induction of necrosis in Candida albicans ATCC 90028 to MIC for Candida albicans ATCC 90028; format: functional
Candida albicans [24] = assay: Antifungal activity against Candida albicans ATCC 90028 assessed as planktonic growth inhibition at 0.09 uM after 48 hrs by M27-A3 protocol based method relative to control; format: functional; settings: ATCC 90028, 48 h, read-out: GI
Candida albicans [25] = assay: Antifungal activity against Candida albicans ATCC 90028 assessed as planktonic growth inhibition at 2.88 uM after 48 hrs by M27-A3 protocol based method relative to control; format: functional; settings: ATCC 90028, 48 h, read-out: GI
Candida albicans [26] = assay: Antifungal activity against Candida albicans ATCC 90028 assessed as planktonic growth inhibition at 1.44 uM after 48 hrs by M27-A3 protocol based method relative to control; format: functional; settings: ATCC 90028, 48 h, read-out: GI
Candida albicans [27] = assay: Fungicidal activity against Candida albicans ATCC 90028 assessed as log reduction in fungal load incubated for 48 hrs followed by replating on sabouraud dextrose agar plate and measured after 48 hrs; format: functional
[28] = Toxicity in Galleria mellonella larvae assessed as cocoon formation at 46.05 uM measured after 18 hrs (reference value: 60 +/- 20%)
Candida albicans [29] = assay: Antifungal activity against Candida albicans ATCC 90028 assessed as planktonic growth inhibition at 11.51 uM after 48 hrs by M27-A3 protocol based method relative to control; format: functional; settings: ATCC 90028, 48 h, read-out: GI
[30] = Toxicity in Galleria mellonella larvae assessed as survival rate at 46.05 uM measured after 18 hrs (reference value: 100%)
Candida albicans [31] = assay: Antifungal activity against Candida albicans ATCC 90028 assessed as reduction in cell growth after 48 to 72 hrs in presence of ergosterol by M27-A3 protocol based method; format: functional
[32] = Toxicity in Galleria mellonella larvae assessed as movement melanization at 46.05 uM measured after 48 hrs (reference value: 0%)
Candida albicans [33] = assay: Antifungal activity against Candida albicans ATCC 90028 assessed as planktonic growth inhibition at 5.76 uM after 48 hrs by M27-A3 protocol based method relative to control; format: functional; settings: ATCC 90028, 48 h, read-out: GI

For Cc1cccc(C2CCCN2CCCn2nnc(-c3ccccc3)n2)c1 (stereo not drawn), which Activity (Candida albicans [1]) is on record?
Its Activity is 7%.

What about the Activity (Candida albicans [2]) of the same compound?
Its Activity is 97%.

And the inhibition of growth at 0.18 µM (Candida albicans [3])?
The inhibition of growth at 0.18 µM was 99.4%.

What about the inhibition of growth at 0.72 µM (Candida albicans [4]) of the same compound?
Its inhibition of growth at 0.72 µM is 99.4%.

And the Activity [5]?
The Activity was 80%.

What about the Activity (Candida albicans [6]) of the same compound?
The Activity was “Active”.

What about the MIC (Candida albicans [7]) of the same compound?
Its MIC is 11.5 µM (≈ 4 µg/mL).

And the survival at 120 h, 46.05 µM [8]?
Its survival at 120 h, 46.05 µM is 80%.

And the Activity [9]?
The Activity was 73%.

What about the inhibition of growth at 46.05 µM (Candida albicans [10]) of the same compound?
The inhibition of growth at 46.05 µM was 99.4%.

What about the IC50 (Candida albicans [11]) of the same compound?
Its IC50 is 46.1 µM.

And the survival at 48 h, 46.05 µM [12]?
Its survival at 48 h, 46.05 µM is 100%.

And the inhibition at 46.05 µM (Candida albicans [13])?
The inhibition at 46.05 µM was 98.2%.

And the inhibition (Candida albicans [14])?
Its inhibition is “Active”.

And the Activity [15]?
Its Activity is 20%.

And the inhibition of growth at 0.36 µM (Candida albicans [16])?
Its inhibition of growth at 0.36 µM is 99.5%.

What about the inhibition of growth at 23.02 µM (Candida albicans [17]) of the same compound?
Its inhibition of growth at 23.02 µM is 99.4%.

What about the Activity (Candida albicans [18]) of the same compound?
Its Activity is “Active”.

What about the Activity (Candida albicans [19]) of the same compound?
The Activity was “Active”.

What about the Activity [20] of the same compound?
Its Activity is 0%.

And the selectivity ratio [21]?
Its selectivity ratio is 2.

And the IC50 (Candida albicans [22])?
Its IC50 is 46.1 µM.

And the “Selectivity Index” value (Candida albicans [23])?
The value was 4.

And the inhibition of growth at 0.09 µM (Candida albicans [24])?
Its inhibition of growth at 0.09 µM is 100%.

What about the inhibition of growth at 2.88 µM (Candida albicans [25]) of the same compound?
Its inhibition of growth at 2.88 µM is 99.3%.

What about the inhibition of growth at 1.44 µM (Candida albicans [26]) of the same compound?
Its inhibition of growth at 1.44 µM is 99.4%.

What about the “log(activity)” value (Candida albicans [27]) of the same compound?
Its value is -0.1.

What about the Activity [28] of the same compound?
The Activity was 87%.

And the inhibition of growth at 11.51 µM (Candida albicans [29])?
Its inhibition of growth at 11.51 µM is 99.5%.

And the survival at 18 h, 46.05 µM [30]?
Its survival at 18 h, 46.05 µM is 100%.

What about the MIC (Candida albicans [31]) of the same compound?
Its MIC is 23 µM.

And the Activity [32]?
The Activity was 0%.

And the inhibition of growth at 5.76 µM (Candida albicans [33])?
Its inhibition of growth at 5.76 µM is 99.4%.
